Here are results for two molecules from article PMC7725843, “Structural and biochemical analyses of an aminoglycoside 2′-N-acetyltransferase from Mycolicibacterium smegmatis” (Scientific Reports, 2020).

Experiment [1] addresses T1, AAC(2′)-Id (Mycolicibacterium smegmatis, UniProt P94968).
T1 construct: full-length ORF (630 bp), codon-optimised synthetic gene in pET-28a(+), E. coli BL21(DE3); N-terminal His-tag cut with thrombin; homodimer
Kind of experiment: X-ray crystal structure. The settings on record: ternary complexes with gentamicin, sisomicin, neomycin or paromomycin; 5 mM CoA. The format is binding.

Experiment [2] addresses T1, AAC(2′)-Id. Kind of experiment: DTNB assay of CoA release at […] nm, Michaelis-Menten fit. It is filed as biochemical. The settings on record: 300 μM acetyl-CoA, 50 mM MES pH 6.5, 200 μM DTNB, 25 °C.

T1 sequence (P94968 whole entry): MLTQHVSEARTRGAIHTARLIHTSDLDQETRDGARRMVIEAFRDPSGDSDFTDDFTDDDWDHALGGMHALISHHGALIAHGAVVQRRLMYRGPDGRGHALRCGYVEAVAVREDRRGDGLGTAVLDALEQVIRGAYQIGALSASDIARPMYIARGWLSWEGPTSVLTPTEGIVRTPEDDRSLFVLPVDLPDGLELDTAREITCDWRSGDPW

Regarding `CC(C)(COP(=O)(O)OP(=O)(O)OC[C@H]1O[C@@H](n2cnc3c(N)ncnc32)[C@H](O)[C@@H]1OP(=O)(O)O)[C@@H](O)C(=O)NCCC(=O)NCCS` [CoA], at AAC(2′)-Id [1], the X-ray crystal structure result is reported as “chain B contains only a CoA molecule”.
For the molecule `CN[C@@H]1[C@@H](O)[C@@H](O[C@@H]2[C@@H](O)[C@H](O[C@H]3OC(CN)=CC[C@H]3N)[C@@H](N)C[C@H]2N)OC[C@]1(C)O` [Sisomicin], the “Km (μM)” value at AAC(2′)-Id [2] is reported as “(7.30 ± 0.58) × 10 μM”.
